Assay results as given in patent publication US9809562B2, “NAT10 modulators for treating or preventing laminopathies, aging and cancer” (CAMBRIDGE ENTERPRISE LIMITED, priority 2014, dated 2017).
Where a name gives a salt, the structure may show the parent alone.

Key:
[1] = test system: siLMNA cells; test: Cell cycle profile by flow cytometry; format: cell-based, human
Experimental: 10 μM EdU was incubated for 2 hours when indicated. Cells were fixed in 4% paraformaldehyde (Sigma-Aldrich). EdU was fluorescently labeled using the Click-iT® EdU Flow Cytometry Assay Kit (Life Sciences). DNA was stained with […] propidium iodide (Sigma-Aldrich) in phosphate buffer solution (PBS) containing 0.1% Triton-X-100 and 0.5 mg ml^−1 DNase free RNase A (Sigma-Aldrich). Samples were processed on a FACSCalibur flow cytometer equipped with CellQuest software (Becton Dickinson). Results were analysed using FlowJo software (TreeStar).

[2] = target: T1, NAT10 purified from HEK293 cells (Homo sapiens, UniProt Q9H0A0); test: Lysine acetyltransferase (KAT) assay with tubulin substrate; format: biochemical; conditions: compounds at 50 μM
T1 construct: made in house; host or cells: HEK293 (transient transfection, anti-FLAG immunopurification, elution with triple-Flag peptide)
T1 sequence (Q9H0A0 1-1025): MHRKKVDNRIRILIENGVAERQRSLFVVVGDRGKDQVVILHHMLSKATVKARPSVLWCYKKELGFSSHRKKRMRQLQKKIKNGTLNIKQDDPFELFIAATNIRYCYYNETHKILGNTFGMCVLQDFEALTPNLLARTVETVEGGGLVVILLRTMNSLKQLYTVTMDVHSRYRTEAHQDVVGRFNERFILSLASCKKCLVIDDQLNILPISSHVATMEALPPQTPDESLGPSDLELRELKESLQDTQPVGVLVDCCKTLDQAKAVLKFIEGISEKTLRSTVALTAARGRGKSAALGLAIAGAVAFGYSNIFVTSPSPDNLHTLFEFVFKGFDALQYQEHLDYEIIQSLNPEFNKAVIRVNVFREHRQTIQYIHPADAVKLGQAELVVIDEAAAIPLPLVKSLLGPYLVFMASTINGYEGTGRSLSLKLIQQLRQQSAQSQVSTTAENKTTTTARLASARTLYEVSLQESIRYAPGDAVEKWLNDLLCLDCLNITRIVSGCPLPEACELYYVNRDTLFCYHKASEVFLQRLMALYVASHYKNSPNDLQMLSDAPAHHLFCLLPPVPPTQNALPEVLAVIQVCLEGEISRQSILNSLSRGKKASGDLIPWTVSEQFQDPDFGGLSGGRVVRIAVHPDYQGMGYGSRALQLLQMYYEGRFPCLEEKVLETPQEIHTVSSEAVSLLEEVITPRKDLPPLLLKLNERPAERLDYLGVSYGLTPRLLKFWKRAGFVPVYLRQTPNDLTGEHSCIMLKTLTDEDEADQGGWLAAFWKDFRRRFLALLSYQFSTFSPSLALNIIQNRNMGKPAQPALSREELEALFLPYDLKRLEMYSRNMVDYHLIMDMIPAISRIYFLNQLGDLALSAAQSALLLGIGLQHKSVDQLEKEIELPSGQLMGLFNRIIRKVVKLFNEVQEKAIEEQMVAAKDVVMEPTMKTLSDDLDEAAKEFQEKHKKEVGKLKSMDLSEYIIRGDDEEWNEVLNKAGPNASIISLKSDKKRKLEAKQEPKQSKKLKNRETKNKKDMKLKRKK
Experimental: HEK293 cells were transiently transfected with NAT10 constructs and harvested after 48 hours in PBS. Cells were lysed for 5 minutes at room temperature in IP lysis buffer (20 mM Tris pH 7.5, 40 mM NaCl, 2 mM MgCl2, 0.5% NP-40) freshly supplemented with 50 U/ml benzonase and EDTA-free protease inhibitor cocktail (Roche). After this initial lysis step, NaCl concentration was adjusted to 450 mM and samples were incubated at 4° C. with rotation. Lysates were clarified by centrifugation (13,200 rpm, 20 minutes at 4° C.), and after recovery NaCl concentration was equilibrated to 150 mM. Lysates were used for immunoprecipitation reaction in IP buffer (25 mM Tris pH 7.5, 150 mM NaCl, 1.5 mM DTT, 10% glycerol, 0.5% NP-40) supplemented with protease inhibitors. Target proteins were captured with anti-FLAG antibody (M2, Sigma-Aldrich) coupled to protein A/G-Dynabeads (Life Sciences). Complexes were washed with IP buffer containing incrementally increasing amounts of NaCl (250 mM, 500 mM, and 1M). Following this, the immuno-complexes were washed in TBS containing gradually decreasing amounts on NaCl (1M, 500 mM, 250 mM, and 150 mM). At this point, elution was carried out using excess triple-Flag peptide (Sigma Aldrich). Eluted proteins were loaded on a gel and the purification was verified by Silver Staining (SilverQuest kit, Life Sciences). […]

[3] = test system: Normal fibroblasts; test: Microarray gene expression, normal fibroblasts; format: cell-based, human; conditions: 1 μM, 12 population doublings
Experimental: Normal fibroblasts or HGPS fibroblasts were kept in culture for 12 population doublings with chronic treatment of 1 μM Compound 2 (top panels of FIG. 29) or transfected with siRNA against NAT10 for 3 days (bottom panels of FIG. 29). RNA was extracted and global gene expression was analysed by microarray. Volcano plots show a very high specificity of Compound 2 towards gene expression regulation of HGPS cells, with about 1000 genes affected more than 2 fold, whereas only 24 genes were affected in normal fibroblasts.

[4] = test system: Lmna^G609G/G609G mice; test: Tubulin acetylation levels in mice; format: in vivo, mouse; conditions: treated Lmna^G609G/G609G mice
Experimental: As Tubulin is a direct substrate of NAT10, Tubulin acetylation levels in cells derived from HGPS patients (left and bottom panel of FIG. 27) were assessed as well as in Lmna^G609G/G609G mice (right panel of FIG. 27).

[5] = Compound concentration in heart and muscles; format: in vivo; conditions: mice, end of the 14 days oral treatment
Excerpt: Right panel of FIG. 24: measurement of Compound 2 concentration in heart and muscles of mice treated with the indicated dose, at the end of the 14 days treatment.

NAT10 WT KAT activity towards tubulin [2] | Compound | accumulation of cells in mitosis [1] | effect on cell cycle profile ([1]; siLMNA cells) | number of genes affected [3] [genes] | tubulin acetylation levels [4] | compound concentration in heart and muscles [5]
abolished NAT10 WT KAT activity | N#Cc1ccc(-c2csc(NN=C3CCCC3)n2)cc1 [Compound 1, 4-(4-Cyanophenyl)-2-(2-cyclopentylidenehydrazinyl)thiazole] | cells did not accumulate in mitosis |  |  |  | 
 | Clc1ccc(-c2csc(NN=C3CCCC3)n2)cc1 [Compound 2, 4-(4-Chlorophenyl)-2-(2-cyclopentylidenehydrazinyl)thiazole Hydrochloride Salt] |  | without markedly affecting the cell cycle profile | 24 | decrease of tubulin acetylation levels | very high concentration of the compound in both heart and muscles
abolished NAT10 WT KAT activity | C#CCN(N=C1CCCC1)c1nc(-c2ccc(Cl)cc2)cs1 [Compound 3, 4-(4-Chlorophenyl)-2-(2-cyclopentylidene-1-(prop-2-yn-1-yl)hydrazinyl)thiazole] |  |  |  |  | 
